In patent US20230255912A1, “COMPOSITIONS AND METHODS FOR TREATING CRP-MEDIATED DISEASES” (Ponce de Leon Health Designated Activity Company, priority 2020, published 2023):
Read-outs that look alike come from different tables or passages of the source.

Columns and labels:
CRP = assay: Blood chemistry of a human volunteer: CRP; assay type: in vivo; details: for CRP: 1,000 mg Ca-AKG + 900 mcg Vitamin A daily, oral, baseline 4.9
Excerpt: METHOD EXAMPLE. Blood chemistry. […] The following results were obtained:

[1] = for Total/HDL: baseline 2.9; for Alkaline phosphatase: baseline 44; for HDL: baseline 64; for Triglycerides: baseline 85; for Glucose: baseline 95; for Cholesterol: baseline 184; for Platelets: baseline 359
Excerpt: METHOD EXAMPLE. Blood chemistry. […] Prior to the start of dosing, a baseline blood draw is obtained for hematology, chemistry, CRP measurement, and metabolite analyses. After the start of dosing, blood draws are obtained monthly.

inflammatory cytokines = details: female mice, 29 months
Protocol: METHOD EXAMPLE. Cytokine Levels in Aged Mice. Female mice (18 months) are divided into treatment and untreated groups. Baseline levels of 30 inflammatory cytokines are measured. […] Following treatment, levels of 30 inflammatory cytokines are measured from serum samples and compared to untreated controls.

[2] = compared to aged controls, p<0.05

For `O=C(O)CCC(=O)C(=O)O` [AKG, 2-oxopentanedioic acid], the “lowering of CRP” value (CRP; human volunteer, baseline vs 12 months) was “more than 10 fold”, the levels of triglycerides ([1]; human volunteer, vs baseline) was “improves” and the “other important biological markers, such as platelets, glucose, PSA” value ([1]; human volunteer, vs baseline) was “does not adversely affect”.
With `O.O=C([O-])CCC(=O)C(=O)[O-].[Ca+2]` [Ca-AKG, calcium alpha-ketoglutarate monohydrate] the CRP (CRP; 10 Months) was 2.5 mg/L, the CRP (CRP; 12 Months) was 0.4 mg/L and the Total/HDL ([1]; 10 Months) was 2.4. For the same compound, the Alkaline phosphatase ([1]; 10 Months) was 40 U/L, the HDL ([1]; 10 Months) was 76 mg/dL and the Triglycerides ([1]; 10 Months) was 49 mg/dL. For the same compound, the Glucose ([1]; 10 Months) was 104 mg/dL, the Cholesterol ([1]; 10 Months) was 184 mg/dL and the Platelets ([1]; 10 Months) was 392 K/CUMM. The Total/HDL ([1]; 12 Months) was 2.4, the Alkaline phosphatase ([1]; 12 Months) was 30 U/L and the HDL ([1]; 12 Months) was 76 mg/dL. The Triglycerides ([1]; 12 Months) was 52 mg/dL, the Glucose ([1]; 12 Months) was 99 mg/dL and the Cholesterol ([1]; 12 Months) was 181 mg/dL. The Platelets ([1]; 12 Months) was 332 K/CUMM, the “level of IL-3” value (inflammatory cytokines; [2]) was “significantly lower” and the “level of IL-7” value (inflammatory cytokines; [2]) was “significantly lower”. The “level of MIP-1β” value (inflammatory cytokines; [2]) was “significantly lower”, the “level of TNF-α” value (inflammatory cytokines; [2]) was “significantly lower” and the “levels of IL-3, IL-7, TNF-α, and MIP-1β compared to the 18 month baseline” value (inflammatory cytokines; treatment group vs 18 month baseline) was “statistically indistinguishable”.
